17 molecules from patent publication EP1167342A1, “Novel substituted nitrocatechols, their use in the treatment of some central and peripheral nervous system disorders and pharmaceutical compositions containing them” (Portela & Ca., S.A., priority 2000, dated 2002) can be followed below.

The test system of one assay is Brain COMT. The experiment in a line: Ex vivo COMT activity in mouse brain homogenates after administration of test compound by gastric tube. Also noted: species or system NMRI mice. The conditions noted are these: for Brain COMT (% of control) 1h / Brain COMT (% of control) 6h: homogenates of mice brain, dose not given, means±S.E.M. of 4-8 experiments; for Brain COMT (% of control) 1h: 1 h after administration by gastric tube; for Brain COMT (% of control) 6h: 6 h after administration by gastric tube; for activity in the brain: conclusion, statement in words.

The next assay has as its system Liver COMT. The experiment in a line: Ex vivo COMT activity in mouse liver homogenates after administration of test compound by gastric tube. Also noted: species or system NMRI mice. The conditions noted are these: for Liver COMT (% of control) 1h / Liver COMT (% of control) 6h: homogenates of mice liver, dose not given, means±S.E.M. of 4-8 experiments; for Liver COMT (% of control) 1h: 1 h after administration by gastric tube; for Liver COMT (% of control) 6h: 6 h after administration by gastric tube; for potency upon liver COMT compared with brain COMT: mice, after oral administration, statement in words.

In the next assay the target is T1, COMT (Homo sapiens, UniProt P21964).
T1 construct: COMT activity was evaluated in cell monolayers by the ability to methylate adrenaline; host or cells: SK-N-SH
T1 sequence (P21964 1-271): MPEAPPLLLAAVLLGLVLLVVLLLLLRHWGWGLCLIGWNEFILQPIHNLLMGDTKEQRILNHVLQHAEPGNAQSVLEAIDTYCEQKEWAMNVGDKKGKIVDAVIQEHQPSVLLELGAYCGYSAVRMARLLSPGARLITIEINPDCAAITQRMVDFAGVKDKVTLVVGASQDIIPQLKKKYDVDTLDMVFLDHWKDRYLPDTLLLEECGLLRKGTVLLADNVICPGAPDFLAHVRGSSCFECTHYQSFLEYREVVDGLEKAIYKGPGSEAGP
The experiment in a line: COMT activity in intact SK-N-SH cells (methylation of adrenaline to metanephrine, HPLC with electrochemical detection). The assay is classed as cell-based. The conditions noted are these: concentration of test compound 100 nM, means ±SEM of n=4-8.

As to `Cl.O=C(CN1CCCCCC1)c1cc(O)c(O)c([N+](=O)[O-])c1` [Compound 1, 2-Azepan-1-yl-1-(3,4-dihydroxy-5-nitro-phenyl)-ethanone hydrochloride], in the assay with Brain COMT, the “Brain COMT (% of control) 1h” value is 45.0±15.0 % of control and the “Brain COMT (% of control) 6h” value was 102.0±19.0 % of control. Moreover, in the assay on Liver COMT, the “Liver COMT (% of control) 1h” value is given as 40.8±6.4 % of control and the “Liver COMT (% of control) 6h” value is listed as 49.9±2.2 % of control. In addition, at COMT, the “COMT activity (% of control)” value was 4.3±0.6 % of control.
For the molecule `Cl.O=C(CCN1CCCCC1)c1cc(O)c(O)c([N+](=O)[O-])c1` [Compound 2, 1-(3,4-Dihydroxy-5-nitro-phenyl)-3-piperidin-1-yl-propan-1-one hydrochloride], in the assay on Brain COMT, the “activity in the brain” value is reported as “limited activity in the brain”, the “Brain COMT (% of control) 1h” value is reported as 80.0±11.0 % of control and the “Brain COMT (% of control) 6h” value was 95.0±12.0 % of control. In addition, in the assay with Liver COMT, the “Liver COMT (% of control) 1h” value was 24.6±4.8 % of control, the “Liver COMT (% of control) 6h” value is on record as 56.9±17.7 % of control and the “potency upon liver COMT compared with brain COMT” value is “much more potent upon liver COMT than brain COMT”. For the same molecule, on COMT, the “COMT activity (% of control)” value is on record as 7.5±0.6 % of control.
`Cl.O=C(CC(c1ccccc1)N1CCCCC1)c1cc(O)c(O)c([N+](=O)[O-])c1` (stereo not shown) [Compound 3, 1-(3,4-Dihydroxy-5-nitro-phenyl)-3-phenyl-3-piperidin-1-yl-propan-1-one hydrochloride]: in the assay with Brain COMT, the “activity in the brain” value is “limited activity in the brain”, the “Brain COMT (% of control) 1h” value was 81.0±11.0 % of control and the “Brain COMT (% of control) 6h” value is 71.0±11.0 % of control. Moreover, in the assay on Liver COMT, the “Liver COMT (% of control) 1h” value is recorded as 13.5±3.2 % of control, the “Liver COMT (% of control) 6h” value is recorded as 13.6±3.2 % of control and the “potency upon liver COMT compared with brain COMT” value is on record as “much more potent upon liver COMT than brain COMT”. Besides, on COMT, the “COMT activity (% of control)” value is listed as 7.2±1.9 % of control.
On to `Cl.O=C(CC(c1ccccc1)N1CCCC1)c1cc(O)c(O)c([N+](=O)[O-])c1` (stereo not shown) [Compound 4, 1-(3,4-Dihydroxy-5-nitro-phenyl)-3-phenyl-3-pyrrolidin-1-yl-propan-1-one hydrochloride], for which, in the assay on Brain COMT, the “Brain COMT (% of control) 1h” value is listed as 55.0±8.7 % of control and the “Brain COMT (% of control) 6h” value is reported as 49.6±4.9 % of control. In addition, in the assay with Liver COMT, the “Liver COMT (% of control) 1h” value is 12.0±1.8 % of control and the “Liver COMT (% of control) 6h” value was 14.4±4.3 % of control. For the same molecule, at COMT, the “COMT activity (% of control)” value was 23.8±2.9 % of control.
For the molecule `Cl.O=C(CC(c1ccccc1)N1CCOCC1)c1cc(O)c(O)c([N+](=O)[O-])c1` (stereo not shown) [Compound 5, 1-(3,4-Dihydroxy-5-nitro-phenyl)-3-morpholin-4-yl-3-phenyl-propan-1-one hydrochloride], in the assay with Brain COMT, the “Brain COMT (% of control) 1h” value was 38.6±6.4 % of control and the “Brain COMT (% of control) 6h” value is reported as 57.2±5.1 % of control. In addition, in the assay on Liver COMT, the “Liver COMT (% of control) 1h” value is 16.7±1.6 % of control; the “Liver COMT (% of control) 6h” value is recorded as 35.2±9.6 % of control; the “potency upon liver COMT compared with brain COMT” value was “equally potent in inhibiting liver and brain COMT activity”. For the same molecule, the “COMT activity (% of control)” value on COMT is 40.2±8.7 % of control.
`CC1CCCCN1CC(=O)c1cc(O)c(O)c([N+](=O)[O-])c1.Cl` (stereo not shown) [Compound 6, 1-(3,4-Dihydroxy-5-nitro-phenyl)-2-(2-methyl-piperidin-1-yl)-ethanone hydrochloride]: in the assay with Brain COMT, the “Brain COMT (% of control) 1h” value is 37.0±3.3 % of control and the “Brain COMT (% of control) 6h” value is reported as 66.0±2.6 % of control. Further, in the assay on Liver COMT, the “Liver COMT (% of control) 1h” value was 57.6±5.8 % of control and the “Liver COMT (% of control) 6h” value is 99.9±10.3 % of control. For the same molecule, the “COMT activity (% of control)” value on COMT is reported as 12.2±1.7 % of control.
The corresponding values for `CCN(CC)C(C)C(=O)c1cc(O)c(O)c([N+](=O)[O-])c1.Cl` (stereo not shown) [Compound 7, 2-Diethylamino-1-(3,4-dihydroxy-5-nitro-phenyl)-propan-1-one hydrochloride] are 74.0±12.0 % of control, 126.0±8.0 % of control, 38.4±2.8 % of control, 57.1±4.9 % of control and 9.0±0.2 % of control.
The matching figures for `O=C(COc1ccccc1)c1cc(O)c(O)c([N+](=O)[O-])c1` [Compound 8, 1-(3,4-Dihydroxy-5-nitro-phenyl)-2-phenoxy-ethanone]: 61.0±4.0 % of control, 104.4±6.2 % of control, 22.0±3.7 % of control, 49.6±9.4 % of control and 8.6±0.1 % of control.
The corresponding values for `COc1ccc(OCC(=O)c2cc(O)c(O)c([N+](=O)[O-])c2)cc1` [Compound 9, 1-(3,4-Dihydroxy-5-nitro-phenyl)-2-(4-methoxy-phenoxy)-ethanone] are 59.0±6.0 % of control, 93.0±9.0 % of control, 29.0±1.0 % of control, 35.0±6.0 % of control and 12.8±0.4 % of control.
As for `O=C(COc1ccc2ccccc2c1)c1cc(O)c(O)c([N+](=O)[O-])c1` [Compound 10, 1-(3,4-Dihydroxy-5-nitro-phenyl)-2-(naphthalen-2-yloxy)-ethanone], in the assay with Brain COMT, the “activity in the brain” value is given as “limited activity in the brain”, the “Brain COMT (% of control) 1h” value is recorded as 83.0±5.0 % of control and the “Brain COMT (% of control) 6h” value was 119.0±13.0 % of control. Further, in the assay with Liver COMT, the “Liver COMT (% of control) 1h” value is on record as 17.3±2.7 % of control, the “Liver COMT (% of control) 6h” value is given as 38.7±4.7 % of control and the “potency upon liver COMT compared with brain COMT” value is on record as “much more potent upon liver COMT than brain COMT”. Moreover, the “COMT activity (% of control)” value at COMT is given as 2.0±0.1 % of control.
On to `CC1CN(CC(=O)c2cc(O)c(O)c([N+](=O)[O-])c2)CC(C)O1.Cl` (stereo not shown) [Compound 11, 1-(3,4-Dihydroxy-5-nitro-phenyl)-2-(2,6-dimethyl-morpholin-4-yl)-ethanone hydrochloride], for which, in the assay with Brain COMT, the “Brain COMT (% of control) 1h” value is reported as 80.0±5.0 % of control and the “Brain COMT (% of control) 6h” value is 103.0±7.0 % of control. Besides, in the assay with Liver COMT, the “Liver COMT (% of control) 1h” value is given as 38.0±5.0 % of control and the “Liver COMT (% of control) 6h” value is given as 73.0±10.0 % of control. For the same molecule, at COMT, the “COMT activity (% of control)” value is on record as 14.8±1.3 % of control.
The matching figures for `CC1CC(C)CN(CC(=O)c2cc(O)c(O)c([N+](=O)[O-])c2)C1.Cl` (stereo not shown) [Compound 12, 1-(3,4-Dihydroxy-5-nitro-phenyl)-2-(3,5-dimethyl-piperidin-1-yl)-ethanone hydrochloride]: 32.0±2.0 % of control, 84.0±6.0 % of control, 33.0±2.0 % of control, 52.0±13.0 % of control and 15.4±1.8 % of control.
The corresponding values for `Cl.Cl.O=C(CN1CCN(c2cccc(C(F)(F)F)c2)CC1)c1cc(O)c(O)c([N+](=O)[O-])c1` [Compound 13, 1-(3,4-Dihydroxy-5-nitro-phenyl)-2-[4-(3-trifluoromethyl-phenyl)-piperazin-1-yl]-ethanone dihydrochloride] are 76.0±9.0 % of control, 100.0±10.0 % of control, 49.7±3.2 % of control, 46.7±2.9 % of control and 7.7±0.6 % of control.
In the case of `Cl.O=C(CCN1CCc2ccccc2C1)c1cc(O)c(O)c([N+](=O)[O-])c1` [Compound 27, 3-(3,4-Dihydro-1H-isoquinolin-2-yl)-1-(3,4-dihydroxy-5-nitro-phenyl)-propan-1-one hydrochloride], the “COMT activity (% of control)” value on COMT is 11.4±4.0 % of control.
In the case of `Cc1ccc(SCC(=O)c2cc(O)c(O)c([N+](=O)[O-])c2)cc1` [Compound 28, 1-(3,4-Dihydroxy-5-nitro-phenyl)-2-p-tolylsulphanyl-ethanone], on COMT, the “COMT activity (% of control)” value was 10.0±2.6 % of control.
Still for that read-out and setting: the figure for `Cl.Cl.O=C(CCN1CCN(C(=O)c2ccccc2)CC1)c1cc(O)c(O)c([N+](=O)[O-])c1` [Compound 29, 3-(4-Benzoyl-piperazin-1-yl)-1-(3,4-dihydroxy-5-nitro-phenyl)-propan-1-one dihydrochloride] is 1.5±0.6 % of control; for `COc1ccc(C(=O)N2CCN(CCC(=O)c3cc(O)c(O)c([N+](=O)[O-])c3)CC2)cc1.Cl.Cl` [Compound 30, 1-(3,4-Dihydroxy-5-nitro-phenyl)-3-[4-(4-methoxy-benzoyl)-piperazin-1-yl]-propan-1-one dihydrochloride] it is 1.9±1.3 % of control.
